The subject of one assay is Plasmopara viticola. As to the kind of experiment: Plasmopara viticola / grape / leaf disc preventative. It counts as in vivo. The settings on record: 200 ppm, grape vine leaf disks, inoculated 1 day after application, 6-8 days after application, compared to untreated control.
The next assay relates to Pythium ultimum. The assay can be described thus: Pythium ultimum / liquid culture (seedling damping off). The class given is cell-based. The settings on record: Globisporangium ultimum, read-out: control of Pythium ultimum.
The subject of a further assay is Phytophthora infestans. It counts as in vivo. The following applies: 200 ppm; tomato leaf disks, preventative, inoculated 1 day after application; 5-7 days after application; compared to untreated control.

Bounds are passed on as bounds.

As for `COC(=O)Nc1ccc(-c2cnc3ccc(C(=O)N(C)c4ccc(F)c(C)c4)cn23)cn1` [X.09, methyl N-[5-[6-[(4-fluoro-3-methyl-phenyl)-methyl-carbamoyl]imidazo[1,2-a]pyridin-3-yl]-2-pyridyl]carbamate], the “control of Plasmopara viticola” value in the assay on Plasmopara viticola is “at least 80%”. In addition, the inhibition of growth at 20 ppm in the assay with Pythium ultimum was at least 80%.

Consider `COC(=O)Nc1ccc(-c2cnc3ccc(C(=O)N(C)c4ccc(F)cc4)cn23)cc1` [X.07, methyl N-[4-[6-[(4-fluorophenyl)-methyl-carbamoyl]imidazo[1,2-a]pyridin-3-yl]phenyl]carbamate], for which the “control of Plasmopara viticola” value in the assay on Plasmopara viticola was “at least 80%”. The inhibition of growth at 20 ppm with Pythium ultimum was at least 80%.

`COC(=O)Nc1ccc(-c2cnc3c(C)cc(C(=O)N(C)c4ccc(F)c(OC)c4)cn23)cn1` [X.02, methyl N-[5-[6-[(4-fluoro-3-methoxy-phenyl)-methyl-carbamoyl]-8-methyl-imidazo[1,2-a]pyridin-3-yl]-2-pyridyl]carbamate]: in the assay with Plasmopara viticola, the “control of Plasmopara viticola” value is reported as “at least 80%”. In addition, the inhibition of growth at 20 ppm in the assay with Pythium ultimum was at least 80%.

In the case of `COC(=O)Nc1ccc(-c2cnc3cc(C)c(C(=O)N(C)c4ccc(F)cc4)cn23)cn1` [X.13, methyl N-[5-[6-[(4-fluorophenyl)-methyl-carbamoyl]-7-methyl-imidazo[1,2-a]pyridin-3-yl]-2-pyridyl]carbamate], the “control of Plasmopara viticola” value in the assay with Plasmopara viticola is “at least 80%”. The inhibition of growth at 20 ppm in the assay on Pythium ultimum is at least 80%.

For the molecule `COC(=O)Nc1ccc(-c2cnc3ccc(C(=O)N(C)c4ccc(Cl)c(OC)c4)cn23)cn1` [X.11, methyl N-[5-[6-[(4-chloro-3-methoxy-phenyl)-methyl-carbamoyl]imidazo[1,2-a]pyridin-3-yl]-2-pyridyl]carbamate], the “control of Plasmopara viticola” value with Plasmopara viticola is recorded as “at least 80%”. In the assay on Pythium ultimum, the inhibition of growth at 20 ppm is at least 80%.

Turning to `COCN(C(=O)c1ccc2ncc(-c3ccc(NC(=O)OC)nc3)n2c1)c1ccc(F)c(OC)c1` [X.04, methyl N-[5-[6-[(4-fluoro-3-methoxy-phenyl)-(methoxymethyl)carbamoyl]imidazo[1,2-a]pyridin-3-yl]-2-pyridyl]carbamate], in the assay on Plasmopara viticola, the “control of Plasmopara viticola” value was “at least 80%”. The inhibition of growth at 20 ppm in the assay on Pythium ultimum was at least 80%.

Take `COC(=O)Nc1ccc(-c2cnc3c(NC(C)=O)cc(C(=O)N(C)c4ccc(F)c(OC)c4)cn23)cn1` [X.20, methyl N-[5-[8-acetamido-6-[(4-fluoro-3-methoxy-phenyl)-methyl-carbamoyl]imidazo[1,2-a]pyridin-3-yl]-2-pyridyl]carbamate]: in the assay on Plasmopara viticola, the “control of Plasmopara viticola” value is “at least 80%”. Moreover, the inhibition of growth at 20 ppm with Pythium ultimum is at least 80%.

For `COCc1cc(C(=O)N(C)c2ccc(F)c(OC)c2)cn2c(-c3ccc(NC(=O)OC)nc3)cnc12` [X.21, methyl N-[5-[6-[(4-fluoro-3-methoxy-phenyl)-methyl-carbamoyl]-8-(methoxymethyl)imidazo[1,2-a]pyridin-3-yl]-2-pyridyl]carbamate], the “control of Plasmopara viticola” value in the assay on Plasmopara viticola is “at least 80%”. In the assay on Phytophthora infestans, the “control of Phytophthora infestans” value was “at least 80%”. In addition, the inhibition of growth at 20 ppm in the assay with Pythium ultimum was at least 80%.

Consider `COc1cc(N(C)C(=O)c2ccc3ncc(-c4ccc(NC(=O)C5CC5)nc4)n3c2)ccc1F` [X.06, 3-[6-(cyclopropanecarbonylamino)-3-pyridyl]-N-(4-fluoro-3-methoxy-phenyl)-N-methyl-imidazo[1,2-a]pyridine-6-carboxamide], for which, in the assay with Plasmopara viticola, the “control of Plasmopara viticola” value is listed as “at least 80%”. In the assay on Phytophthora infestans, the “control of Phytophthora infestans” value is recorded as “at least 80%”. Further, the inhibition of growth at 20 ppm in the assay with Pythium ultimum is at least 80%.

Regarding `COC(=O)Nc1ccc(-c2cnc3c(C)cc(C(=O)N(C)c4ccc(F)cc4)cn23)cn1` [X.12, methyl N-[5-[6-[(4-fluorophenyl)-methyl-carbamoyl]-8-methyl-imidazo[1,2-a]pyridin-3-yl]-2-pyridyl]carbamate], the “control of Plasmopara viticola” value in the assay on Plasmopara viticola is listed as “at least 80%”. For the same molecule, the inhibition of growth at 20 ppm in the assay on Pythium ultimum was at least 80%.

Turning to `COC(=O)Nc1ccc(-c2cnc3ccc(C(=O)N(CC#N)c4ccc(Cl)c(OC)c4)cn23)cn1` [X.15, methyl N-[5-[6-[(4-chloro-3-methoxy-phenyl)-(cyanomethyl)carbamoyl]imidazo[1,2-a]pyridin-3-yl]-2-pyridyl]carbamate], in the assay with Plasmopara viticola, the “control of Plasmopara viticola” value is on record as “at least 80%”. Moreover, in the assay on Pythium ultimum, the inhibition of growth at 20 ppm was at least 80%.

Consider `CONC(=O)Nc1ccc(-c2cnc3ccc(C(=O)N(C)c4ccc(F)c(OC)c4)cn23)cn1` [X.17], for which, in the assay on Pythium ultimum, the inhibition of growth at 20 ppm is at least 80%.

Consider `COC(=O)Nc1ccc(-c2cnc3c(NC(C)=O)cc(C(=O)N(C)c4ccc(F)cc4)cn23)cn1` [X.18, methyl N-[5-[8-acetamido-6-[(4-fluorophenyl)-methyl-carbamoyl]imidazo[1,2-a]pyridin-3-yl]-2-pyridyl]carbamate], for which the “control of Plasmopara viticola” value in the assay with Plasmopara viticola is on record as “at least 80%”. Further, the inhibition of growth at 20 ppm in the assay on Pythium ultimum is at least 80%.

Regarding `COC(=O)Nc1ccc(-c2cnc3c(C)cc(C(=O)N(C)c4ccc(C#N)c(OC)c4)cn23)cn1` [X.23, methyl N-[5-[6-[(4-cyano-3-methoxy-phenyl)-methyl-carbamoyl]-8-methyl-imidazo[1,2-a]pyridin-3-yl]-2-pyridyl]carbamate], in the assay on Plasmopara viticola, the “control of Plasmopara viticola” value is listed as “at least 80%”. In addition, the “control of Phytophthora infestans” value in the assay on Phytophthora infestans is reported as “at least 80%”. Moreover, the inhibition of growth at 20 ppm in the assay on Pythium ultimum was at least 80%.

`COCN(C(=O)c1cc(C)c2ncc(-c3ccc(NC(=O)OC)nc3)n2c1)c1ccc(F)c(OC)c1` [X.03, methyl N-[5-[6-[(4-fluoro-3-methoxy-phenyl)-(methoxymethyl)carbamoyl]-8-methyl-imidazo[1,2-a]pyridin-3-yl]-2-pyridyl]carbamate]: in the assay on Plasmopara viticola, the “control of Plasmopara viticola” value is “at least 80%”. In addition, the inhibition of growth at 20 ppm with Pythium ultimum is at least 80%.

Consider `COC(=O)Nc1ccc(-c2cnc3ccc(C(=O)N(CS(C)(=O)=O)c4ccc(F)c(OC)c4)cn23)cn1` [X.16, methyl N-[5-[6-[(4-fluoro-3-methoxy-phenyl)-(methylsulfonylmethyl)carbamoyl]imidazo[1,2-a]pyridin-3-yl]-2-pyridyl]carbamate], for which, in the assay on Pythium ultimum, the inhibition of growth at 20 ppm was at least 80%.

Regarding `COC(=O)Nc1ccc(-c2cnc3ccc(C(=O)N(C)c4ccc(F)c(OC)c4)cn23)cn1` [X.01, methyl N-[5-[6-[(4-fluoro-3-methoxy-phenyl)-methyl-carbamoyl]imidazo[1,2-a]pyridin-3-yl]-2-pyridyl]carbamate], the “control of Plasmopara viticola” value in the assay on Plasmopara viticola was “at least 80%”. In addition, the inhibition of growth at 20 ppm with Pythium ultimum is at least 80%.

As to `COC(=O)Nc1ccc(-c2cnc3ccc(C(=O)N(C)c4ccc(F)c(OC)c4)cn23)cc1` [X.05, methyl N-[4-[6-[(4-fluoro-3-methoxy-phenyl)-methyl-carbamoyl]imidazo[1,2-a]pyridin-3-yl]phenyl]carbamate], the “control of Plasmopara viticola” value in the assay on Plasmopara viticola was “at least 80%”. Also, the inhibition of growth at 20 ppm in the assay with Pythium ultimum is at least 80%.

On to `CCN(C(=O)c1ccc2ncc(-c3ccc(NC(=O)OC)nc3)n2c1)c1ccc(F)cc1` [X.19, methyl N-[5-[6-[ethyl-(4-fluorophenyl)carbamoyl]imidazo[1,2-a]pyridin-3-yl]-2-pyridyl]carbamate], for which the “control of Plasmopara viticola” value in the assay with Plasmopara viticola is “at least 80%”. For the same molecule, the inhibition of growth at 20 ppm in the assay on Pythium ultimum was at least 80%.

For the molecule `COC(=O)Nc1ccc(-c2cnc3c(C)cc(C(=O)N(C)c4ccc(Cl)cc4)cn23)cc1` [X.08, methyl N-[4-[6-[(4-chlorophenyl)-methyl-carbamoyl]-8-methyl-imidazo[1,2-a]pyridin-3-yl]phenyl]carbamate], the “control of Plasmopara viticola” value with Plasmopara viticola is listed as “at least 80%”. Also, the inhibition of growth at 20 ppm in the assay on Pythium ultimum was at least 80%.

On to `COC(=O)Nc1ccc(-c2cnc3c(C)cc(C(=O)N(C)c4ccnc(OC)c4)cn23)cn1` [X.22, methyl N-[5-[6-[(2-methoxy-4-pyridyl)-methyl-carbamoyl]-8-methyl-imidazo[1,2-a]pyridin-3-yl]-2-pyridyl]carbamate], for which the “control of Plasmopara viticola” value with Plasmopara viticola is “at least 80%”. In addition, the “control of Phytophthora infestans” value with Phytophthora infestans is given as “at least 80%”. The inhibition of growth at 20 ppm in the assay on Pythium ultimum was at least 80%.

For `COC(=O)Nc1ccc(-c2cnc3ccc(C(=O)N(C)c4ccc(C#N)c(OC)c4)cn23)cn1` [X.10, methyl N-[5-[6-[(4-cyano-3-methoxy-phenyl)-methyl-carbamoyl]imidazo[1,2-a]pyridin-3-yl]-2-pyridyl]carbamate], the “control of Plasmopara viticola” value with Plasmopara viticola was “at least 80%”. For the same molecule, the inhibition of growth at 20 ppm in the assay with Pythium ultimum is at least 80%.

As to `COC(=O)Nc1ccc(-c2cnc3ccc(C(=O)N(CC#N)c4ccc(F)c(OC)c4)cn23)cn1` [X.14, methyl N-[5-[6-[cyanomethyl-(4-fluoro-3-methoxy-phenyl)carbamoyl]imidazo[1,2-a]pyridin-3-yl]-2-pyridyl]carbamate], the “control of Plasmopara viticola” value in the assay on Plasmopara viticola is reported as “at least 80%”. In the assay on Pythium ultimum, the inhibition of growth at 20 ppm is at least 80%.

For the origin of these results see patent US20260293898A1 (priority 2023, published 2026).
